# Reference: PMC5248655 (ACS chemical neuroscience, 2015)
# Where a name gives a salt, the structure may show the parent alone. Read-outs that look alike come from different tables or passages of the source.
# Experiments:
# P-gp [1] = assay: Western blot of P-gp expression in SCHs; type: cell-based, rat; conditions: 48 h treatment, vs control cells, n = 4
# LRP1 [2] = assay: Western blot of LRP1 expression in SCHs; type: cell-based, rat; conditions: 48 h treatment; for increase in LRP1 expression: n = 4
# C57BL/6 wild-type mice = conditions: compared to control mice; cited from earlier work
# [3] = system: sandwich-cultured primary rat hepatocytes (SCHs); conditions: induction of LRP1 and P-gp; cited from earlier work
# P-gp [4] = assay: Western blot of P-gp expression in RBE4 cells; type: cell-based, rat; conditions: 5 µM, 48 h, normalized, vs control, n = 4
# LRP1 [5] = assay: Western blot of LRP1 expression in RBE4 cells; type: cell-based, rat; conditions: 5 µM, 48 h, normalized, vs control, n = 4
# P-gp [6] = assay: Western blot of hepatic P-gp expression in treated rats; type: in vivo, rat; conditions: 26 day treatment, n = 5
# LRP1 [7] = assay: Western blot of hepatic LRP1 expression in treated rats; type: in vivo, rat; conditions: 26 day treatment, n = 5
# Sprague–Dawley male rats [8] = assay: TCA precipitation assay of Aβ degradation in treated rats; type: in vivo, rat; conditions: rats treated 26 days, data not shown
# Sprague–Dawley male rats [9] = conditions: n = 5; for hepatic uptake (extravascular extraction, E) of ^125I-Aβ40: absolute value
# P-gp [10] = conditions: 26 day treatment, Western blot, n = 5
# LRP1 [11] = conditions: 26 day treatment, Western blot, n = 5
# Aβ40 = conditions: rat, in vivo
# Aβ42 = conditions: rat, in vivo
# Sprague–Dawley male rats [12] = assay: Brain efflux index; conditions: 60 min after intracerebral microinjection
compound,measurement,setting,value
"COc1ccc2c3c1O[C@H]1C[C@@H](O)C=C[C@@]31CCN(C)C2 [galantamine, Galantamine hydrochloride]",increase in P-gp expression,P-gp [1],1.3 fold
same,increase in LRP1 expression,LRP1 [2]; vs control cells,1.2 fold
CC12CC3CC(C)(C1)CC(N)(C3)C2 [memantine],effect on LRP1 expression (in words),LRP1 [2],no effect
C/C=C(/C=O)[C@@H](CC=O)CC(=O)OCCc1ccc(O)cc1 [oleocanthal],increase in brain efflux of exogenously introduced Aβ40,C57BL/6 wild-type mice,29%
CO[C@H]1/C=C/O[C@@]2(C)Oc3c(C)c(O)c4c(O)c(c(/C=N/N5CCN(C)CC5)c(O)c4c3C2=O)NC(=O)/C(C)=C\C=C\[C@H](C)[C@H](O)[C@@H](C)[C@@H](O)[C@@H](C)[C@H](OC(C)=O)[C@@H]1C [rifampicin],effect on biliary clearance of ^125I-Aβ (in words),[3],significantly increased
"CCN(C)C(=O)Oc1cccc([C@H](C)N(C)C)c1 [rivastigmine, rivastigmine L-tartrate]",increase in P-gp expression,P-gp [4],approximately 1.7 fold
same,increase in LRP1 expression,LRP1 [5],approximately 1.7 fold
same,increase in P-gp expression,P-gp [1],1.3 fold
same,increase in LRP1 expression,LRP1 [2]; vs control cells,1.7 fold
same,increase in liver P-gp expression,P-gp [6]; aged rats,81%
same,increase in liver P-gp expression,P-gp [6]; young rats,47%
same,increase in liver LRP1 expression,LRP1 [7]; aged rats,88%
same,increase in liver LRP1 expression,LRP1 [7]; young rats,41%
same,effect on Aβ degradation,Sprague–Dawley male rats [8],no effect
same,"hepatic uptake (extravascular extraction, E) of ^125I-Aβ40","Sprague–Dawley male rats [9]; aged rats, 26 day treatment, mean ± SEM",64.0 ± 4.9%
same,increase in hepatic uptake of ^125I-Aβ40,"Sprague–Dawley male rats [9]; aged rats, 26 day treatment, vs vehicle-treated rats of the same age",119%
same,"hepatic uptake (extravascular extraction, E) of ^125I-Aβ40","Sprague–Dawley male rats [9]; young rats, 26 day treatment, mean ± SEM",64 ± 3.7%
same,increase in brain P-gp protein expression,P-gp [10]; aged rats,20%
same,increase in brain P-gp protein expression,P-gp [10]; young rats,36%
same,increase in brain LRP1 protein expression,LRP1 [11]; aged rats,56%
same,increase in brain LRP1 protein expression,LRP1 [11]; young rats,42%
same,reduction of total brain Aβ40 level,Aβ40,approximately 52%
same,total Aβ40 level in brain,Aβ40,1713 ± 260 pmol/g brain tissue
same,reduction of total brain Aβ42 level,Aβ42,approximately 52%
same,reduction trend in brain Aβ42 levels (in words),Aβ42,not statistically significant
same,total Aβ42 level in brain,Aβ42,466 ± 67 pmol/g brain tissue
"Nc1c2c(nc3ccccc13)CCCC2 [tacrine, Tacrine hydrochloride]",down-regulation of LRP1 expression,LRP1 [2]; vs control cells,20%
^125I-Aβ40,reduction of extravascular extraction (E) in aged compared to young rats,Sprague–Dawley male rats [9]; aged (24 months) vs young (4 months) rats,44%
same,extravascular extraction or hepatic uptake of ^125I-Aβ40,"Sprague–Dawley male rats [9]; vehicle-treated young rats, single pass into the portal vein, 18 s, mean ± SEM",51.9 ± 2.4%
same,^125I-Aβ40 BEI%,Sprague–Dawley male rats [12]; vehicle-treated aged rats (24 months),47%
same,^125I-Aβ40 BEI%,Sprague–Dawley male rats [12]; vehicle-treated young rats (4 months),59%
